Data: BindingDB's records for doi:10.1016/s0960-894x(00)00142-6 (University of Wales, 2000)

target: Glutathione S-transferase 2 (Onchocerca volvulus); test: The compound was tested for it's inhibitory activity against Onchocerca volvulus Glutathione S-transferase 2

IC50	SMILES
220 µM	NC(CCC(=O)NC(CSC1CCCC(=O)C1)C(=O)NCC(=O)O)C(=O)O (centres undefined) [2-Amino-4-[1-(carboxymethyl-carbamoyl)-2-(3-oxo-cyclohexylsulfanyl)-ethylcarbamoyl]-butyric acid]
31.9 µM	CC(C)C(=O)CC(SCC(NC(=O)CCC(N)C(=O)O)C(=O)NCC(=O)O)c1ccccc1 (centres undefined) [2-Amino-4-[1-(carboxymethyl-carbamoyl)-2-(4-methyl-3-oxo-1-phenyl-pentylsulfanyl)-ethylcarbamoyl]-butyric acid]
48 µM	CCCCOC(=O)CC(SCC(NC(=O)CCC(N)C(=O)O)C(=O)NCC(=O)O)C(=O)O (centres undefined) [2-[2-(4-Amino-4-carboxy-butyrylamino)-2-(carboxymethyl-carbamoyl)-ethylsulfanyl]-succinic acid 4-butyl ester]
19.1 µM	N[C@@H](CCC(=O)N[C@@H](CS[C@H](CC(=O)O)C(=O)O)C(=O)NCC(=O)O)C(=O)O [2-[2-(4-Amino-4-carboxy-butyrylamino)-2-(carboxymethyl-carbamoyl)-ethylsulfanyl]-succinic acid]
